Assay results published in patent publication US6350778B1, “Cinnamoylaminoalkyl-substituted benzenesulfonamide derivatives, processes for their preparation, their use, and pharmaceutical preparations comprising them” (Aventis Pharma Deutschland GmbH, priority 1999, dated 2002).
Values joined by “and” are separate entries in the source; they are usually repeats but may differ in a detail not shown here. Equal entries are not always repeated.

Assays:
[1] = tested on: chloroform-induced ventricular fibrillation in the mouse; assay: Chloroform-induced ventricular fibrillation in the mouse (action in the case of vagal dysfunction); type: in vivo; conditions: for Fibrillation ratio (in %): 3 mg/kg i.p., chloroform anesthesia 30 min later, untreated control 100%
Text: Chloroform-induced ventricular fibrillation in the mouse (action in the case of vagal dysfunction) A hypofunction of the vagal nervous system leads to a hyperfunction of the sympathetic nervous system. Damages to health which result from an imbalance of the autonomic nervous system if the dysfunction relates to the heart, include weakening of the myocardial contractile force and fatal cardiac arrhythmias such as ventricular fibrillation. The action of the test substances was investigated in the model of chloroform-induced ventricular fibrillation in the mouse (see J. W. Lawson, “Antiarrhythmic activity of some isoquinoline derivatives determined by a rapid screening procedure in the mouse,” J. Pharmacol. Exp. Ther. 160 (1968) 22). […] As soon as respiratory arrest had occurred under deep anesthesia (toxic anesthesia stage), the thorax of the animal was opened with a pair of scissors and the heartbeat was visually inspected. It can be detected at a glance here whether the heart is beating, fibrillating, or has stopped. The respiratory arrest induced by chloroform leads, via absolute anoxia (oxygen deficiency) in combination with a direct stimulating action of chloroform on the sympathetic nervous system, to a strong stimulation of the sympathetic nervous system which in turn leads, in combination with the energy deficiency produced in the heart by oxygen deficiency, to the fatal arrhythmia, ventricular fibrillation. […] The percentage proportion of the mice having ventricular fibrillation in the individual test groups (with n animals) is indicated as the fibrillation ratio. The following fibrillation ratios were determined. […] The experiment is carried out here as described above. […] After a further 15 min, the animals were anesthetized with chloroform and the fibrillation ratio was determined.

[2] = tested on: papillary muscle of the guinea pig; assay: Action potential duration (APD90) in the papillary muscle of the guinea pig, shortened by rilmakalim (HOE 234); type: cell-based; conditions: starting values 185-193 ms; for APD90 + HOE 234, 30 min, then + test substance, 60 min: test substance 2 μmol/l added after 30 min rilmakalim (HOE 234) 1 μg/ml, recorded after a further 60 min
Text: Action potential duration in the papillary muscle of the guinea pig
ATP deficiency states, such as are observed during ischemia in the cardiac muscle cell, lead to a shortening of the action potential duration. They are regarded as one of the causes of so-called reentry arrhythmias, which can cause sudden cardiac death. The opening of ATP-sensitive potassium channels by the lowering of the ATP level is regarded as causing this (ATP=adenosine triphosphate). For the measurement of the action potential in the papillary muscle of the guinea pig a standard microelectrode technique was employed.
Guinea pigs of both sexes were killed by a blow to the head, the hearts were removed, and the papillary muscles were separated out and suspended in an organ bath. The organ bath was irrigated with Ringer's solution (136 mmol/l of NaCl, 3.3 mmol/l of KCl, 2.5 mmol/l of CaCl2, 1.2 mmol/l of KH2PO4, 1.1 mmol/l of MgSO4, 5.0 mmol/l of glucose, and 10.0 mmol/l of N-(2-hydroxyethyl)piperazine-N′-(2-ethanesulfonic acid) (HEPES), pH adjusted to 7.4 with NaOH) and aerated with 100% oxygen at a temperature of 37° C. The muscle was stimulated by means of an electrode using square-wave impulses of 1 V and 1 ms duration and a frequency of 1 Hz. The action potential was derived and recorded by means of a glass microelectrode inserted intracellularly, which was filled with 3 mol/l of KCl solution. The substance to be tested was added to the Ringer's solution in a concentration of 2 μmol/l. The action potential was amplified using an amplifier from Hugo Sachs (March-Hugstetten, Germany) and stored and analyzed by means of a computer. The duration of the action potential was determined at a degree of repolarization of 90% (APD90). The action potential shortening was produced by addition of a solution of the potassium channel opener Rilmakalim (HOE 234) (W. Linz et al., Arzneimittelforschung/Drug Research, 42 (II) (1992) 1180-1185) (rilmakalim concentration 1 μg/ml). 30 minutes after the administration of rilmakalim, the action potential duration was recorded. The test substance was then added and the action potential duration, which was prolonged again, was recorded after a further 60 minutes. The test substances were added to the bath solution as stock solutions in propanediol.
The following APD90 values (in milliseconds) were recorded.

[3] = Example 8 10 mg/kg i.p., chloroform 30 min after administration, n = 20
[4] = atropine 1 mg/kg i.v., chloroform 15 min after administration, n = 10

With CCNC(=O)NS(=O)(=O)c1cc(CCNC(=O)/C=C/c2ccc(OC)cc2OC)ccc1OC [Example 4, 1-(5-(2-(2,4-Dimethoxycinnamoylamino)ethyl)-2-methoxyphenylsulfonyl)-3-ethylurea] the melting point was 96 °C.

With CNC(=S)NS(=O)(=O)c1cc(CCNC(=O)/C=C/c2ccc(C)cc2C)ccc1OC [Example 5, 1-(5-(2-(2,4-Dimethylcinnamoylamino)ethyl)-2-methoxyphenylsulfonyl)-3-methylthiourea] the “Fibrillation ratio (in %)” value ([1]; n = 10) was 70%.

In the case of CNC(=S)NS(=O)(=O)c1cc(CCNC(=O)/C=C/c2cc(Cl)ccc2OC)ccc1OC [Example 21, 1-(5-(2-(5-Chloro-2-methoxycinnamoylamino)ethyl)-2-methoxyphenylsulfonyl)-3-methylthiourea], the melting point is reported as 188 to 190 °C.

In the case of CNC(=O)NS(=O)(=O)c1cc(CCNC(=O)/C=C/c2ccc(OC)cc2OC)ccc1OCCOC [Example 8, 1-(5-(2-(2,4-Dimethoxycinnamoylamino)ethyl)-2-(2-methoxyethoxy)phenysulfonyl)-3-methylurea], the “APD90 + HOE 234, 30 min, then + test substance, 60 min” value (“APD90 + HOE 234, 30 min … 60 min” for short) [2] is reported as 92 milliseconds, the “Fibrillation ratio (in %)” value ([1]; n = 10) is reported as 60% and the “Number of animals with fibrillation” value [1, 3] is reported as 9. For the same molecule, the “Number of animals with regular heart action” value [1, 3] was 11 and the Fibrillation ratio ([1]; Example 8 10 mg/kg i.p., chloroform 30 min after administration, n = 20, p < 0.0001 vs atropine, p = 0.024 vs combination) was 45% ^1), 2).

In the case of CNC(=S)NS(=O)(=O)c1cc(CCNC(=O)/C=C/c2ccc(OC)cc2OC)ccc1OCCOC [Example 7, 1-(5-(2-(2,4-Dimethoxycinnamoylamino)ethyl)-2-(2-methoxyethoxy)phenylsulfonyl)-3-methylthiourea], the “APD90 + HOE 234, 30 min … 60 min” value [2] is reported as 175 milliseconds.

C=CCOc1ccc(CCNC(=O)/C=C/c2ccc(OC)cc2OC)cc1S(=O)(=O)NC(=S)NC [Example 23, 1-(2-Allyloxy-5-(2-(2,4-dimethoxycinnamoylamino)ethyl)phenylsulfonyl)-3-methylthiourea] showed a melting point of 171 to 175 °C.

For CNC(=S)NS(=O)(=O)c1cc(CCNC(=O)/C=C/c2ccccc2)ccc1OC [Example 12, 1-(5-(2-(Cinnamoylamino)ethyl)-2-methoxyphenylsulfonyl)-3-methylthiourea], the “Fibrillation ratio (in %)” value ([1]; n = 10) was 63%.

Work on CCNC(=S)NS(=O)(=O)c1cc(CCNC(=O)/C=C/c2ccc(OC)cc2OC)ccc1OC [Example 3, 1-(5-(2-(2,4-Dimethoxycinnamoylamino)ethyl)-2-methoxyphenylsulfonyl)-3-ethylthiourea] yielded a melting point of 90 °C.

For CNC(=S)NS(=O)(=O)c1cc(CCNC(=O)/C=C/c2ccc(OC)cc2OC)ccc1OC [Example 1, 1-(5-(2-(2,4-Dimethoxycinnamoylamino)ethyl)-2-methoxyphenysulfonyl)-3-methylthiourea], the “APD90 + HOE 234, 30 min … 60 min” value [2] was 177 milliseconds and the “Fibrillation ratio (in %)” value ([1]; n = 10) was 60%.

In the case of CCNC(=S)NS(=O)(=O)c1cc(CCNC(=O)/C=C/c2ccc(OC)cc2OC)ccc1OCCOC [Example 9, 1-(5-(2-(2,4-Dimethoxycinnamoylamino)ethyl)-2-(2-methoxyethoxy)phenylsulfonyl)-3-ethylthiourea], the “Fibrillation ratio (in %)” value ([1]; n = 10) is reported as 63%.

CNC(=O)NS(=O)(=O)c1cc(CCNC(=O)/C=C/c2ccc(C)cc2C)ccc1OC [Example 6, 1-(5-(2-(2,4-Dimethylcinnamoylamino)ethyl)-2-methoxyphenylsulfonyl)-3-methylurea] gave a melting point of 227 to 229 °C.

CNC(=S)NS(=O)(=O)c1cc(CCNC(=O)/C=C/c2cc(C(C)(C)C)ccc2OC)ccc1OCCOC [Example 25, 1-(5-(2-(5-tert-Butyl-2-methoxycinnamoylamino)ethyl)-2-(2-methoxyethoxy)phenyl-sulfonyl)-3-methylthiourea] showed a melting point of 73 °C.

Molecule CNC(=S)NS(=O)(=O)c1cc(CCNC(=O)/C=C/c2ccccc2)ccc1OCCOC [Example 17, 1-(5-(2-(Cinnamoylamino)ethyl)-2-(2-methoxyethoxy)phenylsulfonyl)-3-methylthiourea] has a melting point of 150 °C.

Work on CNC(=S)NS(=O)(=O)c1cc(CCNC(=O)/C=C/c2ccc(C)cc2C)ccc1OCCOC [Example 26, 1-(5-(2-(2,4-Dimethylcinnamoylamino)ethyl)-2-(2-methoxyethoxy)phenylsufonyl)-3-methylthiourea] yielded a melting point of 116 °C.

With CN1[C@@H]2CC[C@H]1C[C@@H](OC(=O)C(CO)c1ccccc1)C2 (some centres unmarked) [Atropine, atropine, reference compound] the Fibrillation ratio [1, 4] was 100%, the “Number of animals with fibrillation” value [1, 4] was 10 and the “Number of animals with regular heart action” value [1, 4] was 0.

Work on CNC(=O)NS(=O)(=O)c1cc(CCNC(=O)/C=C/c2ccccc2)ccc1OCCOC [Example 19, 1-(5-(2-(Cinnamoylamino)ethyl)-2-(2-methoxyethoxy)phenylsulfonyl)-3-methylurea] yielded a melting point of 65 °C.

For CNC(=S)NS(=O)(=O)c1cc(CCNC(=O)/C=C/c2ccc(Cl)cc2Cl)ccc1OCCOC [Example 24], the melting point was 76 to 78 °C.

With CNC(=O)NS(=O)(=O)c1cc(CCNC(=O)/C=C/c2ccc(OC)cc2OC)ccc1OC [Example 2, 1-(5-(2-(2 ,4-Dimethoxycinnamoylamino)ethyl)-2-methoxyphenylsulfonyl)-3-methylurea] the melting point was 210 °C.

With CC1(C)Oc2ccc(S(=O)(=O)c3ccccc3)cc2[C@@H](N2CCCC2=O)[C@@H]1O [HOE 234, Rilmakalim, reference compound] the “APD90 + HOE 234, 30 min” value ([2]; potassium channel opener rilmakalim (HOE 234) 1 μg/ml alone, 30 min, before test substance, 37° C., 1 Hz) was 24 milliseconds and 34 milliseconds.
